According to patent US20130029928A1 (priority 2010, published 2013):
Like-named read-outs stand apart in the source and are kept apart here.

Assay: Phase I study CXR1002-001: plasma pharmacokinetics (LC-MS/MS)
Type: in vivo, human
Details: human, plasma, oral; for concentration at 843 h / concentration at 844 h / concentration at 864 h / concentration at 2 h / concentration at 3 h / concentration at 4 h / concentration at 24 h / concentration at 168 h / concentration at 170 h / concentration at 171 h / concentration at 172 h / concentration at 192 h / concentration at 336 h / concentration at 338 h / concentration at 339 h / concentration at 340 h / concentration at 360 h / concentration at 506 h / concentration at 507 h / concentration at 508 h / concentration at 528 h / concentration at 672 h / concentration at 674 h / concentration at 675 h / concentration at 676 h / concentration at 696 h / concentration at 840 h / concentration at 842 h / concentration at 504 h: read-out: Concentration; for concentration at 864 h: 864 hr (Day 37); for concentration at 24 h: 24 hr (Day 2); for concentration at 168 h: 168 hr (Day 8); for concentration at 192 h: 192 hr (Day 9); for concentration at 336 h: 336 hr (Day 15); for concentration at 360 h: 360 hr (Day 16); for concentration at 528 h: 528 hr (Day 23); for concentration at 672 h: 672 hr (Day 29); for concentration at 696 h: 696 hr (Day 30); for concentration at 840 h: 840 hr (Day 36); for concentration at 504 h: 504 hr (Day 22)
From the text: PK samples, PD (fasting) samples, blood glucose, and blood triglyceride samples, were taken over a 6-week period.
Dose limiting toxicity (DLT) will be based on the toxicity assessments over the first 3-week period of the repeat dosing schedule. PK samples (single blood sample) were taken on the following basis: • Every 6 weeks during the repeat dosing phase • If dosing is interrupted or stopped, samples will be taken at intervals according to patient convenience • PK sampling for safety evaluation may take place at any time, as clinically indicated
Plasma samples were collected after the single 50 mg dose at the following timepoints: Pre-dose, and then 0.25, 0.5, 0.75, 1, 1.5, 2, 3, 4, 6, 24, 48, and 72 hours after administration and then once weekly at weeks 2, 3, 4, 5, and 6 (days 8, 15, 22, 29, and 36). For patients treated with the weekly repeat dose, plasma samples were collected at the following timepoints: Pre-dose and then 2, 3, 4 and 24 hours after administration for a total of 6 weeks. Thereafter a single sample was collected every 6 weeks for monitoring of exposure during long term treatment. Plasma samples were processed at site and stored at −80° C. prior to batch shipment to the analytical laboratory.

[1] = 200 mg, Patient 009 Dose 200 mg
[2] = 200 mg, Patient 010 Dose 200 mg
[3] = 300 mg, Patient 011 Dose 300 mg
[4] = 300 mg, Patient 012 Dose 300 mg
[5] = 300 mg, Patient 013 Dose 300 mg
[6] = 300 mg, Patient 014 Dose 300 mg

Work on `O=C(O)C(F)(F)C(F)(F)C(F)(F)C(F)(F)C(F)(F)C(F)(F)C(F)(F)F` [CXR1002] yielded a concentration at 843 h [1] of 373 µM, a concentration at 844 h [1] of 329 µM and a concentration at 864 h [1] of 346 µM. It also gave a concentration at 92 day (200 mg, Patient 009 Dose 200 mg, Day 92) of 456 µM, a concentration at 19 week (200 mg, Patient 009 Dose 200 mg, Week 19) of 618 µM and a concentration at 25 week (200 mg, Patient 009 Dose 200 mg, Week 25) of 501 µM. For the same compound, the concentration at 32 week (200 mg, Patient 009 Dose 200 mg, Week 32) was 540 µM, the concentration at 0 h (200 mg, Patient 010 Dose 200 mg, 0 hr) was 0 nM and the concentration at 2 h [2] was 21.1 µM. It also gave a concentration at 3 h [2] of 30.4 µM, a concentration at 4 h [2] of 33.6 µM and a concentration at 24 h [2] of 58.6 µM. It also gave a concentration at 168 h [2] of 51 µM, a concentration at 170 h [2] of 81.7 µM and a concentration at 171 h [2] of 81.4 µM. For the same compound, the concentration at 172 h [2] was 119 µM, the concentration at 192 h [2] was 101 µM and the concentration at 336 h [2] was 98.8 µM. It also gave a concentration at 338 h [2] of 118 µM, a concentration at 339 h [2] of 103 µM and a concentration at 340 h [2] of 66.7 µM. For the same compound, the concentration at 360 h [2] was 175 µM, the concentration at 506 h [2] was 207 µM and the concentration at 507 h [2] was 276 µM. The concentration at 508 h [2] was 187 µM, the concentration at 528 h [2] was 191 µM and the concentration at 672 h [2] was 192 µM. The concentration at 674 h [2] was 193 µM, the concentration at 675 h [2] was 237 µM and the concentration at 676 h [2] was 231 µM. For the same compound, the concentration at 696 h [2] was 256 µM, the concentration at 840 h [2] was 243 µM and the concentration at 842 h [2] was 188 µM. It also gave a concentration at 843 h [2] of 232 µM, a concentration at 844 h [2] of 223 µM and a concentration at 864 h [2] of 221 µM. The concentration at 2 h [3] was 101 µM, the concentration at 3 h [3] was 107 µM and the concentration at 4 h [3] was 112 µM. For the same compound, the concentration at 24 h [3] was 95.9 µM, the concentration at 168 h [3] was 57.9 µM and the concentration at 170 h [3] was 112 µM. It also gave a concentration at 171 h [3] of 122 µM, a concentration at 172 h [3] of 138 µM and a concentration at 192 h [3] of 178 µM. For the same compound, the concentration at 336 h [3] was 131 µM, the concentration at 338 h [3] was 160 µM and the concentration at 339 h [3] was 160 µM. The concentration at 340 h [3] was 147 µM, the concentration at 360 h [3] was 237 µM and the concentration at 504 h [3] was 145 µM. It also gave a concentration at 506 h [3] of 204 µM, a concentration at 507 h [3] of 288 µM and a concentration at 508 h [3] of 244 µM. The concentration at 672 h [3] was 255 µM, the concentration at 674 h [3] was 291 µM and the concentration at 675 h [3] was 304 µM. For the same compound, the concentration at 676 h [3] was 243 µM, the concentration at 696 h [3] was 326 µM and the concentration at 840 h [3] was 270 µM. For the same compound, the concentration at 842 h [3] was 384 µM, the concentration at 843 h [3] was 350 µM and the concentration at 844 h [3] was 282 µM. The concentration at 864 h [3] was 387 µM, the concentration at 12 week (300 mg, Patient 011 Dose 300 mg, Week 12) was 574 µM and the concentration at 2 h [4] was 91.4 µM. The concentration at 3 h [4] was 93.5 µM, the concentration at 4 h [4] was 123 µM and the concentration at 24 h [4] was 74 µM. The concentration at 168 h [4] was 64.8 µM, the concentration at 171 h [4] was 148 µM and the concentration at 172 h [4] was 126 µM. The concentration at 192 h [4] was 152 µM, the concentration at 336 h [4] was 141 µM and the concentration at 339 h [4] was 196 µM. The concentration at 340 h [4] was 213 µM, the concentration at 360 h [4] was 218 µM and the concentration at 504 h [4] was 181 µM. For the same compound, the concentration at 506 h [4] was 278 µM, the concentration at 507 h [4] was 261 µM and the concentration at 508 h [4] was 221 µM. It also gave a concentration at 528 h [4] of 263 µM, a concentration at 672 h [4] of 303 µM and a concentration at 674 h [4] of 340 µM. The concentration at 675 h [4] was 373 µM, the concentration at 676 h [4] was 292 µM and the concentration at 696 h [4] was 334 µM. For the same compound, the concentration at 2 h [5] was 82.7 µM, the concentration at 3 h [5] was 76 µM and the concentration at 4 h [5] was 85.3 µM. The concentration at 24 h [5] was 79.6 µM, the concentration at 2 h [6] was 131 µM and the concentration at 3 h [6] was 121 µM. It also gave a concentration at 4 h [6] of 100 µM, a concentration at 24 h [6] of 102 µM and a concentration at 168 h [6] of 79.6 µM. It also gave a concentration at 170 h [6] of 154 µM, a concentration at 171 h [6] of 178 µM and a concentration at 172 h [6] of 180 µM. For the same compound, the concentration at 192 h [6] was 178 µM, the concentration at 336 h [6] was 173 µM and the concentration at 338 h [6] was 297 µM. The concentration at 339 h [6] was 270 µM, the concentration at 340 h [6] was 261 µM and the concentration at 504 h [6] was 288 µM. It also gave a concentration at 506 h [6] of 336 µM, a concentration at 507 h [6] of 374 µM and a concentration at 528 h [6] of 420 µM. For the same compound, the concentration at 672 h [6] was 355 µM, the concentration at 674 h [6] was 389 µM and the concentration at 675 h [6] was 400 µM. For the same compound, the concentration at 676 h [6] was 411 µM, the concentration at 696 h [6] was 478 µM and the concentration at 840 h [6] was 426 µM. For the same compound, the concentration at 842 h [6] was 506 µM.
